Values belong to the compound of their own block, whether it stands above or below them. Activity calls are given as the source filed them.
What was measured:
Type in all cases: functional
[1] = target: Melanin-concentrating hormone receptor 1 (Homo sapiens, UniProt Q99705); experiment: Late-stage fluorescence-based counterscreen for antagonists of the G-protein coupled receptor 7 (GPR7): cell-based dose response assay to identify antagonists of the melanin-concentrating hormone receptor 1 (MCHR1) Set 6.
[2] = target: Neuropeptides B/W receptor type 1 (Homo sapiens, UniProt P48145); experiment: GPR7 antagonist potency, late-stage follow-up, cell-based, fluorescence, dose response, set 6 (AID 588583)
[3] = Late-stage assay provider results from the probe development effort to identify agonists of the Sphingosine 1-Phosphate Receptor 3 (S1P3): luminescence-based cell-based dose response counterscreen assay to determine cytotoxicity of agonist compounds.
[4] = target: Sphingosine 1-phosphate receptor 2 (Homo sapiens, UniProt O95136); experiment: Late-stage fluorescence-based dose-response cell-based counterscreen assay to identify agonists of the Sphingosine 1-Phosphate Receptor 3 (S1P3): Sphingosine 1-Phosphate Receptor 2 (S1P2) agonist assay.
[5] = target: Sphingosine 1-phosphate receptor 5 (Homo sapiens, UniProt Q9H228); experiment: Late-stage fluorescence-based dose-response cell-based counterscreen assay to identify agonists of the Sphingosine 1-Phosphate Receptor 3 (S1P3): Sphingosine 1-Phosphate Receptor 5 (S1P5) agonist assay.
[6] = target: Sphingosine 1-phosphate receptor 4 (Homo sapiens, UniProt O95977); experiment: Late-stage fluorescence-based dose-response cell-based counterscreen assay to identify agonists of the Sphingosine 1-Phosphate Receptor 3 (S1P3): Sphingosine 1-Phosphate Receptor 4 (S1P4) agonist assay.
[7] = target: Dual specificity protein kinase CLK2 (Homo sapiens, UniProt P49760)
[8] = target: ALK tyrosine kinase receptor (Homo sapiens, UniProt Q9UM73);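 also: ALK tested as one member of a kinase panel screen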
[9] = target: Serine/threonine-protein kinase D3 (Homo sapiens, UniProt O94806);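 also: determined within a kinase panel screen, with PRKCN as the panel member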
[10] = target: Tyrosine-protein kinase Lck (Homo sapiens, UniProt P06239);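 also: lck was assayed as one member of a kinase panel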
[11] = target: Death-associated protein kinase 3 (Homo sapiens, UniProt O43293);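 also: measured as one member of a kinome-wide profiling panel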
Activin receptor type-1 = Activin receptor type-1 (Homo sapiens, UniProt Q04771); experiment: Navigating the Kinome. Panel member name: ACVR1
[12] = target: Mitogen-activated protein kinase 8 (Homo sapiens, UniProt P45983);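 also: value comes from one member of a kinome-wide kinase profiling panel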
[13] = target: Serine/threonine-protein kinase pim-1 (Homo sapiens, UniProt P11309)
[14] = target: Tyrosine-protein kinase BTK (Homo sapiens, UniProt Q06187)
[15] = target: Serine/threonine-protein kinase PAK 4 (Homo sapiens, UniProt O96013);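 also: value obtained within a kinome profiling panel in which PAK4 was one of the panel members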
[16] = target: Fibroblast growth factor receptor 1 (Homo sapiens, UniProt P11362)
[17] = target: Casein kinase I isoform alpha (Homo sapiens, UniProt P48729)
[18] = target: T1, Tyrosine-protein kinase JAK3 (Homo sapiens, UniProt P52333)
T1 sequence (P52333 whole entry): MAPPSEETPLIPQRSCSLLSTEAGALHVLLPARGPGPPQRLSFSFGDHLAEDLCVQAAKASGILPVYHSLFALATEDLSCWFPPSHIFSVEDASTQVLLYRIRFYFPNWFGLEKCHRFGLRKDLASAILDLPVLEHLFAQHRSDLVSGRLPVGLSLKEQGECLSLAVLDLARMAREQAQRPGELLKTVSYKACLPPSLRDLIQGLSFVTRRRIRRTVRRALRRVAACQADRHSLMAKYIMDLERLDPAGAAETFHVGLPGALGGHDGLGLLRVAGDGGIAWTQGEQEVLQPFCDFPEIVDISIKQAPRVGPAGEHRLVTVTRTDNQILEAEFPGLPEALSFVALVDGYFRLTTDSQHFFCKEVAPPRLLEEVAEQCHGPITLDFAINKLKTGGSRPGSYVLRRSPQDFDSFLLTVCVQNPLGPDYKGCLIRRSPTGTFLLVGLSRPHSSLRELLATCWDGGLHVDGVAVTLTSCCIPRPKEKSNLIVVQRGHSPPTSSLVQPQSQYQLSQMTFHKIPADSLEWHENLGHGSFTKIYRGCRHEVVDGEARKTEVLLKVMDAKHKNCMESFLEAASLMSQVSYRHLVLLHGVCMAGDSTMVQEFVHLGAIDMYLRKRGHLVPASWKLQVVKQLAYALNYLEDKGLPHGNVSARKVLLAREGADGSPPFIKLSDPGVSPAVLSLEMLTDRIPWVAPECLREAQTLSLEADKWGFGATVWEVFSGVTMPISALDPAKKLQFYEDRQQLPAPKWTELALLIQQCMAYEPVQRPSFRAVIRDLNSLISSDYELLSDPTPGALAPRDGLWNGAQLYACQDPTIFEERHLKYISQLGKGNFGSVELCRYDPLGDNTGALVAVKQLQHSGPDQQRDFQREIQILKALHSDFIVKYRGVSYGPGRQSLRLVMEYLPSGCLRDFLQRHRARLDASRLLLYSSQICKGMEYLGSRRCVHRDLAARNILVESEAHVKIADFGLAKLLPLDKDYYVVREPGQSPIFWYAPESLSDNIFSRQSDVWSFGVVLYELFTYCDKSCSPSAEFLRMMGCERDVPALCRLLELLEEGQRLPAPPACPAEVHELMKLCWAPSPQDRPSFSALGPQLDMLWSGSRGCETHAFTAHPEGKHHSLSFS

[19] = target: Serine/threonine-protein kinase TAO1 (Homo sapiens, UniProt Q7L7X3)
[20] = target: Glycogen synthase kinase-3 alpha (Homo sapiens, UniProt P49840);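 also: GSK3A result taken from a broad kinome-wide kinase panel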
Activated CDC42 kinase 1 = Activated CDC42 kinase 1 (Homo sapiens, UniProt Q07912); experiment: Navigating the Kinome. Panel member name: ACK1
[21] = target: T2, Serine/threonine-protein kinase Chk1 (Homo sapiens, UniProt O14757);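 also: measured as one member of a kinome-wide kinase profiling panel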
T2 sequence (O14757 whole entry): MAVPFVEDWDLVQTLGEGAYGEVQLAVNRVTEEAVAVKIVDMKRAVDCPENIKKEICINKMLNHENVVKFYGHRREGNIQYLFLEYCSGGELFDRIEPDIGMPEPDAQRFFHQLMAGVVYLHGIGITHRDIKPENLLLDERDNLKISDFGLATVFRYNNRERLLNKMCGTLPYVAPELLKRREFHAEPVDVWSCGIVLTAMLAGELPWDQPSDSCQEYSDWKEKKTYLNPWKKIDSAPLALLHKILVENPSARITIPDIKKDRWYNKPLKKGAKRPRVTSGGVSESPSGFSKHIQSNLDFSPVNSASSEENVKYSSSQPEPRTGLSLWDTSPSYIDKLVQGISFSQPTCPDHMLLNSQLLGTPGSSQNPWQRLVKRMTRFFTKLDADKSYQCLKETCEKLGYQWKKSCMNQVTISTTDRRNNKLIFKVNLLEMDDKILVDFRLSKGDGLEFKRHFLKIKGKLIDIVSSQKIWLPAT

[22] = target: G protein-coupled receptor kinase 5 (Homo sapiens, UniProt P34947); experiment: Navigating the Kinome. Panel member name: GPRK5
Focal adhesion kinase 1 = Focal adhesion kinase 1 (Homo sapiens, UniProt Q05397);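 also: measured as one member of a kinome panel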
Aurora kinase B = Aurora kinase B (Homo sapiens, UniProt Q96GD4)
[23] = target: Tyrosine-protein kinase Fyn (Homo sapiens, UniProt P06241)
[24] = target: Cyclin-dependent kinase 8 (Homo sapiens, UniProt P49336); experiment: Navigating the Kinome. Panel member name: CDK8
[25] = target: Cyclin-dependent kinase 7 (Homo sapiens, UniProt P50613);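 also: value comes from a kinome-wide kinase profiling panel in which CDK7 is one member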
[26] = target: Mitogen-activated protein kinase kinase kinase kinase 4 (Homo sapiens, UniProt O95819)
[27] = target: Calcium/calmodulin-dependent protein kinase type II subunit alpha (Homo sapiens, UniProt Q9UQM7); experiment: Navigating the Kinome. Panel member name: CAMK2A
[28] = target: Mitogen-activated protein kinase 14 (Homo sapiens, UniProt Q16539);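 also: part of a kinome-wide panel, MAPK14 entry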
Mitogen-activated protein kinase 14, sequence (Q16539 whole entry): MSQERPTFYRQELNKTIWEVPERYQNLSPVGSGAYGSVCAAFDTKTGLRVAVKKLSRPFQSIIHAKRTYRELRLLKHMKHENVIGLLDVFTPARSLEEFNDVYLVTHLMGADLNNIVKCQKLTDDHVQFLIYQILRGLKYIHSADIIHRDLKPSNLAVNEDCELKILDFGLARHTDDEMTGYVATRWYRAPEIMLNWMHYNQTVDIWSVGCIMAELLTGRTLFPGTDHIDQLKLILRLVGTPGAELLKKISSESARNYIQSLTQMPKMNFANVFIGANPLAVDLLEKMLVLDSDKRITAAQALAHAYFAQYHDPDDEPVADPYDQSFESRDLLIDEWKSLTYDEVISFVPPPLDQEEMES

Neuropeptides B/W receptor type 1, sequence (P48145 whole entry): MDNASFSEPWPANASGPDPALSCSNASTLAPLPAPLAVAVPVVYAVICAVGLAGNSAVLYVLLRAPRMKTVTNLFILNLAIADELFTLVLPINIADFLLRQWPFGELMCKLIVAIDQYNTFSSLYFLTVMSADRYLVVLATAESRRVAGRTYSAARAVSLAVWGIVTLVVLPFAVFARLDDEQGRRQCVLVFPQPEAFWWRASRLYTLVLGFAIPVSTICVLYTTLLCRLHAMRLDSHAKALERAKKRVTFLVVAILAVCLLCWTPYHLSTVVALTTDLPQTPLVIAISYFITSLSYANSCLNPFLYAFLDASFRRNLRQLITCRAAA
G protein-coupled receptor kinase 5, sequence (P34947 whole entry): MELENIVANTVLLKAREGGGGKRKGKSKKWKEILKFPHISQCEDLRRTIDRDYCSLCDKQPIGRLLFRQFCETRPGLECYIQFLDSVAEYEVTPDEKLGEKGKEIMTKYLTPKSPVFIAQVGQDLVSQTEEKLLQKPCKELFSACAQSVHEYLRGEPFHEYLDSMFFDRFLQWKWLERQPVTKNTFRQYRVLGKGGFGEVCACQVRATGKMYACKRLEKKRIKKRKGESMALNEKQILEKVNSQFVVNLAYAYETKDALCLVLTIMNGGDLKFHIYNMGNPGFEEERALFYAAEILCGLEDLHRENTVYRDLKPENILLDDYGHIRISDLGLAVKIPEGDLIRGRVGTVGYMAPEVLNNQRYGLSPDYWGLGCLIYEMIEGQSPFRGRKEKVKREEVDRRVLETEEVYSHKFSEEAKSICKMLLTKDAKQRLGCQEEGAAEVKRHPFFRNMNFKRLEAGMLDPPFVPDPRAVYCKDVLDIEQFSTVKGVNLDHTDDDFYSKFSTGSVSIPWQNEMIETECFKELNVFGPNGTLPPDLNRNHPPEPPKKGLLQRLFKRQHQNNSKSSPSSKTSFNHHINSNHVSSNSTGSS
Cyclin-dependent kinase 8, sequence (P49336 whole entry): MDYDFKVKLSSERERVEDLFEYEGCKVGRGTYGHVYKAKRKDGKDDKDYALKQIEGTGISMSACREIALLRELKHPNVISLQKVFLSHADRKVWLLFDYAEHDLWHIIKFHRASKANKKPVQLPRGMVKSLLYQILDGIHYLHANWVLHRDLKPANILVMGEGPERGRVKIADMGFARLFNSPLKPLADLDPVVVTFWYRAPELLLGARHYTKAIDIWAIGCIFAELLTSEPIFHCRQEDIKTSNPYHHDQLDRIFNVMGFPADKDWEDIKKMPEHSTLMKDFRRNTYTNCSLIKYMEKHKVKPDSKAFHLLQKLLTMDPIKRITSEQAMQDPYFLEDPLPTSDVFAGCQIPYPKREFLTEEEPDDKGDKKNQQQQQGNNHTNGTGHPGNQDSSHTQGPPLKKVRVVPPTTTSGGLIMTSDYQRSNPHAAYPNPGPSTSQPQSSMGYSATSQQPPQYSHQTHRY
Sphingosine 1-phosphate receptor 5, sequence (Q9H228 whole entry): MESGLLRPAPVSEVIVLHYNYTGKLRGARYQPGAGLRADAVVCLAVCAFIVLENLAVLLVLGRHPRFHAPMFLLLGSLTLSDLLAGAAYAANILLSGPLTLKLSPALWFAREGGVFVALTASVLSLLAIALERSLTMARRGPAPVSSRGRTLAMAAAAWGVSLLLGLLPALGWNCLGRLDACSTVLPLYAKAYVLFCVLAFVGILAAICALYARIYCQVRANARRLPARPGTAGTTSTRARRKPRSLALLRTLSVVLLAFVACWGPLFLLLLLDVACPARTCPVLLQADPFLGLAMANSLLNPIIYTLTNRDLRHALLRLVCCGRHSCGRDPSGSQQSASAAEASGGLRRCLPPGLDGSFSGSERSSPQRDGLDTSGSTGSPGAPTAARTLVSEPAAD
Sphingosine 1-phosphate receptor 2, sequence (O95136 whole entry): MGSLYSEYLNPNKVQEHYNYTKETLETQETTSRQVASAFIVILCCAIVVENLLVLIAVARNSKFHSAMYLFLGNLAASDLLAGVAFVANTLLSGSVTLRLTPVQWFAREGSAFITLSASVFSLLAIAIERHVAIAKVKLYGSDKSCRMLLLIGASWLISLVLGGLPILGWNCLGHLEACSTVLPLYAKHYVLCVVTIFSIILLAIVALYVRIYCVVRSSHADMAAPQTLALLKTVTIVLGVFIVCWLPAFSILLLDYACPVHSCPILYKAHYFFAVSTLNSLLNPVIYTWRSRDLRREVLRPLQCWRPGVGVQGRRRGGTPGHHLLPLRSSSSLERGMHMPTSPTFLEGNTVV
Calcium/calmodulin-dependent protein kinase type II subunit alpha, sequence (Q9UQM7 whole entry): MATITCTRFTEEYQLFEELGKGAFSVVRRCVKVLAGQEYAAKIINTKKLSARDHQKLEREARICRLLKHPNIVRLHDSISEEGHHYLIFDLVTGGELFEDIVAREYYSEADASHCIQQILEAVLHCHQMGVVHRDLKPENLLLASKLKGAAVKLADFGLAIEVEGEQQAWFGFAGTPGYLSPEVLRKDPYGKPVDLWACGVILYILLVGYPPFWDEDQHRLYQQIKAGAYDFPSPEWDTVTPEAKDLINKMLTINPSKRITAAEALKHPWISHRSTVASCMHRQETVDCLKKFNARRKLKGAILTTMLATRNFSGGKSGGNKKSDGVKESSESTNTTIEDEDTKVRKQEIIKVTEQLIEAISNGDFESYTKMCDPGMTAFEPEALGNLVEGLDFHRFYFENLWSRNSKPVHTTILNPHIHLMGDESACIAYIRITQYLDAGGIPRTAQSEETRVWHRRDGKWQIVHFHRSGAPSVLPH
Serine/threonine-protein kinase TAO1, sequence (Q7L7X3 whole entry): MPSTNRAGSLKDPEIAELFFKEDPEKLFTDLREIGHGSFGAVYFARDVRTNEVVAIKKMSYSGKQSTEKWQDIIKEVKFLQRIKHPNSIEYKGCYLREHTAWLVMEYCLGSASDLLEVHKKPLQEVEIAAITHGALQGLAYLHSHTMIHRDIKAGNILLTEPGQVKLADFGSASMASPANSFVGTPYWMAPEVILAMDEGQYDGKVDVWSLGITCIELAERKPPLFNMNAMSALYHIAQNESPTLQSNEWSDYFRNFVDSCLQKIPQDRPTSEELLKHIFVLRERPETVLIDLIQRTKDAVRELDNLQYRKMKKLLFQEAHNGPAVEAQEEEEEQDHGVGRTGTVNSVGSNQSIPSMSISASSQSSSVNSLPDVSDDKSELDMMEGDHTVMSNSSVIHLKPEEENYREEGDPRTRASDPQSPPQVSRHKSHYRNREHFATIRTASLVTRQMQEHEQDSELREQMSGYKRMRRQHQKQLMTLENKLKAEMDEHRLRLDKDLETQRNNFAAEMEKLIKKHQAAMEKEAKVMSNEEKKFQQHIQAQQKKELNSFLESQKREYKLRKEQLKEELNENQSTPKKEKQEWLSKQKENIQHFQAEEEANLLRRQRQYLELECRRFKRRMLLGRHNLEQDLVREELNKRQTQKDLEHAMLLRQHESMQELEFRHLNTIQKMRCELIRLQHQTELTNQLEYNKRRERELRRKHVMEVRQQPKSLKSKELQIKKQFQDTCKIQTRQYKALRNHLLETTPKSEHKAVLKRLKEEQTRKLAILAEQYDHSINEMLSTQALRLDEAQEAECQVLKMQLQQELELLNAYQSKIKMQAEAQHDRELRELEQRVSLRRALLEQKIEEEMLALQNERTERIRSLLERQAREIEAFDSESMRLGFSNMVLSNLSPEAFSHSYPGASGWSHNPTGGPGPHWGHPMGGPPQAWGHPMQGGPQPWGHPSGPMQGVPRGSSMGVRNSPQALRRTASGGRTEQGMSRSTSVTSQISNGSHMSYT
Aurora kinase B, sequence (Q96GD4 whole entry): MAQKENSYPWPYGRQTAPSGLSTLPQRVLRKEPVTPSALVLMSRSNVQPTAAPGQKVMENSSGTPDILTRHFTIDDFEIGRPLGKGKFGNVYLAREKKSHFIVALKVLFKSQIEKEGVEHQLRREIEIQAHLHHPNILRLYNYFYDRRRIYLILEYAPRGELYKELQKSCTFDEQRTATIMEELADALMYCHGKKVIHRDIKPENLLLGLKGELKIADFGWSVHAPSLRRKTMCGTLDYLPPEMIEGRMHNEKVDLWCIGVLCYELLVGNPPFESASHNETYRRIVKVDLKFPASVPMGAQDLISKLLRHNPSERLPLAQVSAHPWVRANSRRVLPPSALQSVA
Serine/threonine-protein kinase PAK 4, sequence (O96013 whole entry): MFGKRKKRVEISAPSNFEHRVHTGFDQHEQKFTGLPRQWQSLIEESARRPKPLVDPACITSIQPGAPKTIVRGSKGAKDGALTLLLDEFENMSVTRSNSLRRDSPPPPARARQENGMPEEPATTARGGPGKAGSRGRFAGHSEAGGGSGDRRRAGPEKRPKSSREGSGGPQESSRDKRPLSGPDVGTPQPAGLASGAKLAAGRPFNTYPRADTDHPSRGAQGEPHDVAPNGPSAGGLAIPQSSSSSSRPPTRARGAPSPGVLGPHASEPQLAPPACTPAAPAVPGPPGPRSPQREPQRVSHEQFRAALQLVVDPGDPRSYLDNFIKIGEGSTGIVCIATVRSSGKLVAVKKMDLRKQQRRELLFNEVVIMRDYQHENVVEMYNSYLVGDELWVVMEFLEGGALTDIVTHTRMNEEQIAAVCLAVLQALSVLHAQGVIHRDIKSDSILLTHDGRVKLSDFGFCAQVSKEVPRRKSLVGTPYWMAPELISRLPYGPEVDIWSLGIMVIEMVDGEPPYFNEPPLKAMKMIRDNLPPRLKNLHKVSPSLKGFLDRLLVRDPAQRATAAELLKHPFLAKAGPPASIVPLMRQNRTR

IC50 [1]: > 20 µM (inactive)
IC50 [2]: > 20 µM (inactive)
SMILES: COc1ccc(Oc2c(Cl)cnn(Cc3ccccc3C(=O)O)c2=O)cc1

EC50 [4]: > 50 µM (inactive)
EC50 [5]: > 25 µM (inactive)
EC50 [6]: > 50 µM (inactive)
SMILES: O=C(c1cc(C2CC2)on1)N(C1CCCCC1)C1CCCCC1
CC50 [3]: > 10 µM (inactive)

Ki [7]: > 3.98 µM (inactive)
Ki [8]: > 6.31 µM (inactive)
Ki [9]: > 3.98 µM (inactive)
Ki [10]: > 6.31 µM (inactive)
Ki (Activin receptor type-1): > 3.98 µM (inactive)
Ki [12]: > 5.01 µM (inactive)
Ki [13]: > 6.31 µM (inactive)
Ki [14]: > 6.31 µM (inactive)
Ki [15]: > 5.01 µM (inactive)
Ki [16]: > 3.98 µM (inactive)
Ki [17]: > 3.98 µM (inactive)
Ki [18]: > 5.01 µM (inactive)
Ki [19]: > 6.31 µM (inactive)
Ki [20]: > 3.98 µM (inactive)
Ki (Activated CDC42 kinase 1): > 3.98 µM (inactive)
Ki [21]: 0.398 µM (active)
Ki [22]: > 3.98 µM (inactive)
Ki (Focal adhesion kinase 1): > 6.31 µM (inactive)
Ki (Aurora kinase B): > 3.98 µM (inactive)
Ki [23]: > 6.31 µM (inactive)
Ki [24]: > 3.98 µM (inactive)
Ki [25]: > 3.98 µM (inactive)
Ki [26]: > 5.01 µM (inactive)
Ki [27]: > 3.98 µM (inactive)
Ki [28]: > 3.98 µM (inactive)
SMILES: CCOC(=O)Cc1nc2c(N)cccc2[nH]1
Ki [11]: > 5.01 µM (inactive)

Source: ChEMBL document CHEMBL1201862, “PubChem BioAssay data set” (2004)
